In patent US6743211B1, “Devices and methods for enhanced microneedle penetration of biological barriers” (Georgia Tech Research Corporation, priority 1999, dated 2004):

Format: in vitro ADME, human
Procedure: To determine if microfabricated microneedles could be used to enhance transdermal drug delivery, arrays of microneedles were made using a deep plasma etching technique. Their ability to penetrate human skin without breaking was tested and the resulting changes in transdermal transport were measured.
Arrays of microneedles were fabricated having extremely sharp tips (radius of curvature less than 1 μm), and are approximately 150 μm long. Because the skin surface is not flat due to dermatoglyphics and hair, the full length of these microneedles will not penetrate the skin. All experiments were performed at room temperature (23±2° C.).
To quantitatively assess the ability of microneedles to increase transdermal transport, calcein permeability of human epidermis with and without inserted microneedle arrays was measured. Calcein crosses skin very poorly under normal circumstances and therefore represents an especially difficult compound to deliver.
Insertion of microneedles into skin was capable of dramatically increasing permeability to calcein. When microneedles were inserted and left embedded in the skin, calcein permeability was increased by more than 1000-fold. Insertion of microneedles for 10 s, followed by their removal, yielded an almost 10,000-fold increase. […]

SMILES: O=C(O)CN(CC(=O)O)Cc1cc2c(cc1O)Oc1cc(O)c(CN(CC(=O)O)CC(=O)O)cc1C21OC(=O)c2ccccc21 [Calcein]
- Passive permeability across unaltered skin: very low
- Increase in skin permeability to calcein (human): about 25,000 fold
